Paper PMC5653814, “Regiospecific Synthesis of Ring A Fused Withaferin A Isoxazoline Analogues: Induction of Premature Senescence by W-2b in Proliferating Cancer Cells” (Scientific Reports, 2017)
Read-outs that look alike come from different tables or passages of the source.

Key:
[1] = system: MCF7 cells; assay: MTT cell viability assay, MCF7; type: cell-based, human; settings: read-out: Cytotoxicity IC50, MCF7
Experimental: (§1) The cell viability assay was performed according to the procedure previously described with minor modifications. Briefly, MCF7, HCT-116 and fR2 cells were plated in 96 well plates at a density of 5 × 10^3 cells per well and incubated overnight. […] MTT dye solution (2.5 mg/mL) was introduced to the cells in medium 4 h before the completion of the treatment period and the formed formazan crystals were solubilized with DMSO. Optical density was measured with the help of a UV-visible spectrophotometer coupled with microplate reader (TECAN, Infinite M200 Pro), the percent inhibition was calculated and IC50 values were determined with the help of GraphPad Prism software (GraphPad software Inc. CA, USA).
(§2) Data were expressed as the mean ± standard deviation of three independent experiments performed and analyzed by Student’s t-test. IC50 values were determined with the help of GraphPad Prism software Version 5.0 (GraphPad Software, Inc., USA) by taking the log of inhibitor vs. response. A 2-sided value of *P < 0.05 was considered significant in all cases.

[2] = system: HCT-116 cells; assay: MTT cell viability assay, HCT-116; type: cell-based, human; settings: read-out: Cytotoxicity IC50, HCT-116
Experimental: as §1, §2

[3] = MTT cell viability assay, fR2 normal breast epithelial cells; type: cell-based, human; settings: human, fR2 normal breast epithelial cells, read-out: Cytotoxicity IC50, fR2
Experimental: as §1, §2

[4] = system: fR2 cells; assay: as above; type: cell-based, human; settings: 48 h, read-out: Cytotoxicity IC50, fR2
Experimental: as §1, §2

[5] = system: MCF7 cells; assay: SA-β-gal activity assay, MCF7; type: cell-based, human; settings: MCF7, sub-toxic concentrations, five days
Experimental: (§3) The procedure was followed as described previously with some modifications. Briefly, MCF7 and HCT-116 cells (0.4 × 10^6 per well) were seeded in six-well plates and treated with indicated concentrations of W-2b along with WA, vehicle and positive control doxorubicin for five days. Cells were accordingly washed twice with PBS, fixed with 4% paraformaldehyde for 5 min, rinsed twice with PBS and incubated with freshly prepared staining solution (40 mM citric acid/Na phosphate buffer, 5 mM K4[Fe(CN)6] 3H2O, 5 mM K3[Fe(CN)6], 150 mM sodium chloride, 2 mM magnesium chloride and 1 mg/ml X-gal in distilled water, pH 6.0) for 48 h at 37 °C. Stained cells were thoroughly washed and air dried in dark. Cells were then observed under bright field microscope (NIKON) for the SA-β-gal positive cells and images were captured at 20x magnification.

[6] = system: HCT-116 cells; assay: SA-β-gal activity assay, HCT-116; type: cell-based, human; settings: HCT-116, sub-toxic concentrations, five days
Experimental: as §3

[7] = system: fR2 cells; assay: SA-β-gal staining, fR2; type: cell-based, human; settings: fR2, sub-toxic doses 1–2 µM
[8] = system: MCF7 cells; assay: Colony formation (clonogenic) assay, MCF7; type: cell-based; settings: Homo sapiens, 120 h; MCF7, 1.0 µM, five days
Experimental: (§4) The experiment was carried out according to the standardized protocol with some modifications. MCF7 and HCT-116 cells were trypsinized properly, seeded in 6 well plates at a density of 1 × 10^3 cells/well and incubated overnight. Then treatment was given to the cells with vehicle, doxorubicin and various concentrations of W-2b for five days. Cells were then washed, fixed with 4% paraformaldehyde for 10 min, rewashed twice and stained with 0.25% crystal violet solution for 1 h. The wells containing the cells were then washed thoroughly with distilled water to remove any extra stains and then air dried overnight. The plate was then observed under an inverted microscope and colonies from three random fields were counted, averaged and photographed with NIKON camera (D3100) at 4x magnification.

[9] = system: HCT-116 cells; assay: Colony formation (clonogenic) assay, HCT-116; type: cell-based; settings: Homo sapiens, 120 h; HCT-116, 1.5 µM, five days
Experimental: as §4

[10] = system: MCF7 cells; assay: Flow cytometric cell cycle analysis (propidium iodide), MCF7; type: cell-based, human; settings: MCF7, 1.0 µM, 48 h; vehicle 13.03%
Experimental: MCF7 cells were seeded at a density of 0.4 × 10^6 cells/well in 35 mm dishes and incubated overnight at 37 °C and 5% CO2. Next day, cells were treated with vehicle and W-2b at indicated concentrations for 48 h. They were then trypsinized, centrifuged at 2000 rpm for 3 min, washed twice with ice-cold PBS and fixed with ice-cold 70% ethanol (v/v) for 1 hour at 4 °C. Cells were then pelleted down at 2000 rpm for 3 min, washed with PBS and incubated first with 200 μg/ml of RNase A in PBS at 37 °C water bath for 90 min and then with 50 μg/mL of propidium iodide (PI) at room temperature for 30 min in dark. The samples were then analyzed by BD Accuri C6 flow cytometer (BD Biosciences).

[11] = system: 4T1 mouse mammary carcinoma; assay: In vivo tumor growth, 4T1 mouse mammary carcinoma model; settings: 25 mg/kg b.w. intraperitoneal
Experimental: The experiment was performed according to the pre-standardized protocol with minor modifications. To evaluate the in vivo anti-tumor efficacy of W-2b, healthy female Balb/c mice (25–30 g) were taken. Animals were randomized into three groups, and six animals were taken per group. For the tumor cells implantation, mouse mammary carcinoma 4T1 cells (1 × 10^6 per 200 μL) diluted in serum-free RPMI medium were injected subcutaneously into the mammary pad of each mouse around the second right mammary gland. A week after tumor cell implantation, when the palpable mammary tumors develop, mice were injected intraperitoneally with either vehicle (normal saline) or 5-FU (25 mg/kg/b.w.) or W-2b (25 mg/kg/b.w.) in each alternative day for two weeks. Tumor sizes were measured in each alternate day after tumor cell injection, and the body weight was recorded once in a week. Mice were sacrificed on the 15th day after treatment initiation, and tumors were dissected out carefully from the mammary pad area.

## CC1=C(CO)C(=O)OC(C(C)C2CCC3C4CC5OC56C(O)C5ON=C(c7ccc([N+](=O)[O-])cc7)C5C(=O)C6(C)C4CCC23C)C1 (stereo not drawn) [W-2b, 4-nitrophenyl-2-isoxazoline withaferin A]
[1]; 48 h
  IC50: 0.705 ± 0.059 µM
[1]; Homo sapiens, MCF7, 24 h, 24 h
  IC50: 0.881 ± 0.052 µM
[1]; Homo sapiens, MCF7, 72 h, 72 h
  IC50: 0.682 ± 0.075 µM
[2]; 48 h
  IC50: 1.25 ± 0.156 µM
[2]; Homo sapiens, HCT-116, 24 h, 24 h
  IC50: 1.48 ± 0.129 µM
[2]; Homo sapiens, HCT-116, 72 h, 72 h
  IC50: 1.03 ± 0.33 µM
[3]; 24 h
  IC50 at 24 h: 39.7 ± 7.3 µM
[3]; 72 h
  IC50 at 72 h: 33.9 ± 8.23 µM
[4]
  IC50: 35.5 ± 6.12 µM
[5]
  SA-β-gal positive cells: 58%
[6]
  SA-β-gal positive cells: 53%
[7]
  SA-β-gal positive cells: 15–19%
[8]
  inhibition at 1 µM: > 70%
[9]
  inhibition at 1.5 µM: > 70%
[10]
  Cells in G2/M phase: 45.5%
[11]; each alternate day for two weeks, Balb/c mice
  Inhibition in tumor volume: 83.8%
[11]; each alternate day for two weeks, vs normal saline group
  Inhibition in tumor weight: 91.2%
[11]; two weeks
  Tolerability of treated animals: remained healthy without any serious side effects or mortality
